Measurements taken from PMC3307315 (The Journal of Biological Chemistry, 2012).

Legend:
[1] = tested on: HEK293T cells; assay: Cell viability; format: cell-based; conditions: siRNA knockdown, etoposide, MTT (Fig. 2E)
[2] = tested on: 35S-labeled NRF2; format: biochemical; conditions: HEK293T cell-free extracts
[3] = tested on: NRF2; conditions: cited from earlier work
[4] = tested on: endogenous KEAP1; assay: Streptavidin affinity pulldown of GLUE-WTX and Western blot, endogenous KEAP1; format: cell-based

| Molecule | resistance to apoptosis-inducing reagents (conclusion) [1] | half-life of exogenous NRF2 in cell extracts [2] | half-life of exogenous and endogenous NRF2 in intact cells [3] | complex with endogenous KEAP1 [4] |
| --- | --- | --- | --- | --- |
| NRF2: transcription factor NF-E2-related factor-2 | promote resistance to apoptotic inducing reagents | ~6 h | ~20 min | – |
| GLUE-WTX: N-terminal streptavidin-binding protein, calmodulin-binding protein, the hemagglutinin epitope (HA), and WTX (protein, UniProt Q5JTC6 1-1135, looked up, streptavidin-binding, calmodulin-binding peptide and HA tags) APC membrane recruitment …: METQKDEAAQAKGAAASGSTREQTAEKGAKNKAAEATEGPTSEPSSSGPGRLKKTAMKLFGGKKGICTLPSFFGGGRSKGSGKGSSKKGLSKSKTHDGLSEAAHGPEDVVSEGTGFSLPLPELPCQFPSSQSAHGALETGSRCKTSVAGATEKAVAEKFPSMPKPKKGLKGFFSSIRRHRKSKVTGAEQSEPGAKGPERVRARPHEHVSSAPQVPCFEETFQAPRKENANPQDAPGPKVSPTPEPSPPATEKMACKDPEKPMEACASAHVQPKPAPEASSLEEPHSPETGEKVVAGEVNPPNGPVGDPLSLLFGDVTSLKSFDSLTGCGDIIAEQDMDSMTDSMASGGQRANRDGTKRSSCLVTYQGGGEEMALPDDDDEEEEEEEEVELEEEEEEVKEEEEDDDLEYLWETAQMYPRPNMNLGYHPTTSPGHHGYMLLDPVRSYPGLAPGELLTPQSDQQESAPNSDEGYYDSTTPGFEDDSGEALGLVRRDCLPRDSYSGDALYEFYEPDDSLENSPPGDDCLYDLHGRSSEMFDPFLNFEPFLSSRPPGAMETEEERLVTIQKQLLYWELRREQLEAQEARAREAHAREAHAREAYTREAYGREAYAREAHTWEAHGREARTREAQAREVRCRETQVRETQARQEKPVLEYQMRPLGPSVMGLAAGVSGTSQISHRGITSAFPTTASSEPDWRDFRPLEKRYEGTCSKKDQSTCLMQLFQSDAMFEPDMQEANFGGSPRRAYPTYSPPEDPEEEEVEKEGNATVSFSQALVEFTSNGNLFSSMSCSSDSDSSFTQNLPELPPMVTFDIADVERDGEGKCEENPEFHNDEDLAASLEAFELGYYHKHAFNNYHSRFYQGLPWGVSSLPRYLGLPGLHPRPPPAAMALNRRSRSLDTAETLEMELSNSHLVQGYLESDELQAQQEDSDEEDEEEEEGEWSRDSPLSLYTEPPGAYDWPAWAPCPLPVGPGPAWISPNQLDRPSSQSPYRQATCCIPPMTMSISLSVPESRAPGESGPQLARPSHLHLPMGPCYNLQPQASQSMRARPRDVLLPVDEPSCSSSSGGFSPSPLPQAKPVGITHGIPQLPRVRPEHPQPQPTHYGPSSLDLSKERAEQGASLATSYSSTAMNGNLAK | – | – | – | endogenous KEAP1 forms a complex with GLUE-WTX |
